Experimental data as given in the NIST ThermoML archive (doi:10.1021/je4001697).

Conditions: Liquid, Pulse-echo method

Cc1ccccc1 [toluene]
Conditions | speed of sound [m/s]
340 K, 103.2 kPa | 1128.5
340 K, 1103.7 kPa | 1134.9
340 K, 1104.1 kPa | 1134.9
340 K, 2104.3 kPa | 1141.2
340 K, 2104.9 kPa | 1141.2
340 K, 3105 kPa | 1147.5
340 K, 3105.8 kPa | 1147.5
340 K, 4105.8 kPa | 1153.6
340 K, 4106.6 kPa | 1153.6
340 K, 5107.2 kPa | 1159.7
340 K, 6107.7 kPa | 1165.7
340 K, 7108.4 kPa | 1171.7
340 K, 8109.1 kPa | 1177.5
340 K, 9109.7 kPa | 1183.4
340 K, 10110 kPa | 1189.1
340 K, 12612 kPa | 1203.2
340 K, 15114 kPa | 1217
340 K, 17615 kPa | 1230.4
340 K, 20117 kPa | 1243.5
340 K, 25120 kPa | 1268.8
340 K, 30124 kPa | 1293.1
340 K, 35128 kPa | 1316.4
340 K, 40131 kPa | 1338.9
340 K, 45135 kPa | 1360.6
340 K, 50139 kPa | 1381.6
340 K, 60146 kPa | 1421.7
340 K, 70153 kPa | 1459.5
340 K, 80160 kPa | 1495.4
340 K, 90166 kPa | 1529.6
340 K, 100174 kPa | 1562.3
359.99 K, 10111 kPa | 1114.3
359.99 K, 12613 kPa | 1129.7
359.99 K, 15114 kPa | 1144.6
359.99 K, 17616 kPa | 1159.1
359.99 K, 20117 kPa | 1173.3
359.99 K, 25121 kPa | 1200.5
359.99 K, 30124 kPa | 1226.4
359.99 K, 35128 kPa | 1251.3
359.99 K, 40131 kPa | 1275.1
359.99 K, 45134 kPa | 1298.1
359.99 K, 50138 kPa | 1320.2
359.99 K, 60145 kPa | 1362.3
359.99 K, 70152 kPa | 1402
359.99 K, 80159 kPa | 1439.4
359.99 K, 90166 kPa | 1475
359.99 K, 100173 kPa | 1508.9
360 K, 103.4 kPa | 1047.6
360 K, 1104.1 kPa | 1054.7
360 K, 2104.8 kPa | 1061.7
360 K, 3105.4 kPa | 1068.6
360 K, 4106.4 kPa | 1075.4
360 K, 5107 kPa | 1082.1
360 K, 6107.4 kPa | 1088.7
360 K, 7108 kPa | 1095.2
360 K, 8108.7 kPa | 1101.7
360 K, 9109.5 kPa | 1108
360 K, 10110 kPa | 1114.3
360 K, 12612 kPa | 1129.7
380 K, 101.06 kPa | 968.43
380 K, 1102.5 kPa | 976.37
380 K, 2103.4 kPa | 984.15
380 K, 3104.1 kPa | 991.81
380 K, 4105 kPa | 999.34
380 K, 5105.7 kPa | 1006.7
380 K, 6106.1 kPa | 1014
380 K, 7106.8 kPa | 1021.2
380 K, 8107.6 kPa | 1028.3
380 K, 9108.3 kPa | 1035.2
380 K, 10109 kPa | 1042.1
380 K, 12611 kPa | 1058.8
380 K, 15113 kPa | 1075
380 K, 17615 kPa | 1090.7
380 K, 20117 kPa | 1106
380 K, 25120 kPa | 1135.2
380 K, 30124 kPa | 1162.9
380 K, 35127 kPa | 1189.3
380 K, 40131 kPa | 1214.5
380 K, 45134 kPa | 1238.8
380 K, 50138 kPa | 1262.1
380 K, 60144 kPa | 1306.3
380 K, 70152 kPa | 1347.7
380 K, 80159 kPa | 1386.7
380 K, 90166 kPa | 1423.6
380 K, 100173 kPa | 1458.8
400 K, 603.01 kPa | 894.98
400 K, 608.94 kPa | 895.04
400 K, 1104.2 kPa | 899.42
400 K, 2104.6 kPa | 908.15
400 K, 3105.3 kPa | 916.7
400 K, 4105.1 kPa | 925.08
400 K, 4106 kPa | 925.07
400 K, 5106.7 kPa | 933.29
400 K, 6107.4 kPa | 941.35
400 K, 7108 kPa | 949.26
400 K, 8108.7 kPa | 957.04
400 K, 9109.3 kPa | 964.69
400 K, 10110 kPa | 972.21
400 K, 12612 kPa | 990.48
400 K, 15113 kPa | 1008.1
400 K, 17615 kPa | 1025
400 K, 20117 kPa | 1041.5
400 K, 25120 kPa | 1072.8
400 K, 30123 kPa | 1102.4
400 K, 35127 kPa | 1130.4
400 K, 40130 kPa | 1157.1
400 K, 45134 kPa | 1182.7
400 K, 50138 kPa | 1207.2
400 K, 60144 kPa | 1253.4
400 K, 70152 kPa | 1296.5
400 K, 80158 kPa | 1337
400 K, 90166 kPa | 1375.3
400 K, 100173 kPa | 1411.7
420 K, 1102.5 kPa | 823.4
420 K, 2103.2 kPa | 833.27
420 K, 3103.9 kPa | 842.89
420 K, 4104.6 kPa | 852.28
420 K, 5105.2 kPa | 861.45
420 K, 6105.9 kPa | 870.42
420 K, 7106.6 kPa | 879.2
420 K, 8107.3 kPa | 887.79
420 K, 9108 kPa | 896.21
420 K, 10109 kPa | 904.48
420 K, 12610 kPa | 924.47
420 K, 15112 kPa | 943.61
420 K, 17614 kPa | 961.99
420 K, 20116 kPa | 979.68
420 K, 25119 kPa | 1013.3
420 K, 30123 kPa | 1044.8
420 K, 35126 kPa | 1074.5
420 K, 40130 kPa | 1102.7
420 K, 45133 kPa | 1129.5
420 K, 50137 kPa | 1155.2
420 K, 60144 kPa | 1203.5
420 K, 70151 kPa | 1248.4
420 K, 80158 kPa | 1290.4
420 K, 90165 kPa | 1329.9
420 K, 100172 kPa | 1367.4
